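A five-concentration, 48-hour dose response in 96-well plates underlies each endpoint, interpolated linearly between surrounding concentrations. GI50 = concentration required for 50% inhibition of growth. TGI marks complete inhibition of growth.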
Key:
Assay in all cases: DTP human tumour cell line panel, 48 h
[1] = tested on: BT-549 breast
[2] = tested on: CCRF-CEM leukemia
[3] = tested on: DU-145 prostate
[4] = tested on: SNB-19 CNS
[5] = tested on: MDA-MB-435
[6] = tested on: NCI-H23 lung
[7] = tested on: MCF7 breast
[8] = tested on: PC-3 prostate
[9] = tested on: A498 renal
[10] = tested on: MALME-3M melanoma
[11] = tested on: HCC-2998 colon
[12] = tested on: HT29 colon
[13] = tested on: IGROV1 ovarian
[14] = tested on: NCI/ADR-RES ovarian
[15] = tested on: M14 melanoma
[16] = tested on: HOP-62 NSCLC
[17] = tested on: RXF 393 renal
[18] = tested on: NCI-H226 lung
[19] = tested on: UACC-62 melanoma
[20] = tested on: MOLT-4 leukemia
[21] = tested on: OVCAR-4 ovarian
[22] = tested on: OVCAR-5 ovarian
[23] = tested on: MDA-MB-231 breast
[24] = tested on: SN12C renal
[25] = tested on: TK-10 renal
[26] = tested on: HOP-92 NSCLC
[27] = tested on: HS 578T breast
[28] = tested on: SK-MEL-2 melanoma
[29] = tested on: SF-268 CNS
[30] = tested on: HCT-116 colon
[31] = tested on: K-562 leukemia
[32] = tested on: CAKI-1 renal
[33] = tested on: UACC-257 melanoma
[34] = tested on: SK-MEL-5 melanoma
[35] = tested on: ACHN renal
[36] = tested on: LOX IMVI melanoma
[37] = tested on: SK-OV-3 ovarian
[38] = tested on: RPMI-8226 leukemia
[39] = tested on: A549 NSCLC
[40] = tested on: 786-0 renal
[41] = tested on: OVCAR-3 ovarian
[42] = tested on: EKVX NSCLC
[43] = tested on: SF-295 CNS
[44] = tested on: HL-60(TB) leukemia
[45] = tested on: SNB-75 CNS
[46] = tested on: KM12 colon
[47] = tested on: HCT-15 colon
[48] = tested on: T-47D breast
[49] = tested on: SK-MEL-28 melanoma
[50] = tested on: OVCAR-8 ovarian
[51] = tested on: SW-620 colon
[52] = tested on: COLO 205 colon
[53] = tested on: NCI-H522 lung
[54] = tested on: SF-539 CNS
[55] = tested on: U251 CNS
[56] = tested on: NCI-H460 lung
[57] = tested on: SR leukemia
[58] = tested on: UO-31 renal

Which results are given for N=c1oc2cc(O)ccc2cc1C(=O)Nc1ccccn1?
TGI [1]: > 100 µM; TGI [2]: 94.2 µM; TGI [3]: 61 µM; TGI [4]: > 100 µM; TGI [5]: > 100 µM; TGI [6]: > 100 µM; TGI [7]: > 100 µM; TGI [8]: > 100 µM; TGI [9]: 98.2 µM; TGI [10]: > 100 µM; TGI [11]: > 100 µM; TGI [12]: > 100 µM; TGI [13]: > 100 µM; TGI [14]: > 100 µM; TGI [15]: > 100 µM; TGI [16]: > 100 µM; TGI [17]: 99.7 µM; TGI [18]: > 100 µM; TGI [19]: > 100 µM; TGI [20]: > 100 µM; TGI [21]: > 100 µM; TGI [22]: > 100 µM; TGI [23]: > 100 µM; TGI [24]: > 100 µM; TGI [25]: > 100 µM; TGI [26]: > 100 µM; TGI [27]: > 100 µM; TGI [28]: 97.2 µM; TGI [29]: > 100 µM; TGI [30]: > 100 µM; TGI [31]: > 100 µM; TGI [32]: > 100 µM; TGI [33]: > 100 µM; TGI [34]: > 100 µM; TGI [35]: > 100 µM; TGI [36]: > 100 µM; TGI [37]: > 100 µM; TGI [38]: > 100 µM; TGI [39]: > 100 µM; TGI [40]: 39.3 µM; TGI [41]: > 100 µM; TGI [42]: > 100 µM; TGI [43]: > 100 µM; TGI [44]: > 100 µM; TGI [45]: > 100 µM; TGI [46]: > 100 µM; TGI [47]: > 100 µM; TGI [48]: > 100 µM; TGI [49]: > 100 µM; TGI [50]: > 100 µM; TGI [51]: > 100 µM; TGI [52]: 32.8 µM; TGI [53]: 13 µM; TGI [54]: > 100 µM; TGI [55]: > 100 µM; TGI [56]: > 100 µM

What does the source list for Nc1[nH]nc(Nc2ccccc2)c1-c1nc2ccccc2s1?
GI50 [1]: 1.52 µM; TGI [1]: 3.34 µM; GI50 [2]: 0.911 µM; TGI [2]: 9.61 µM; GI50 [3]: 3.02 µM; TGI [3]: 11.6 µM; GI50 [4]: 2.08 µM; TGI [4]: 4.56 µM; GI50 [5]: 1.94 µM; TGI [5]: 4.89 µM; GI50 [6]: 1.73 µM; TGI [6]: 5.04 µM; GI50 [7]: 2.26 µM; TGI [7]: 8.68 µM; GI50 [8]: 1.58 µM; TGI [8]: 3.39 µM; GI50 [9]: 1.69 µM; TGI [9]: 4.01 µM; GI50 [57]: 1.84 µM; TGI [57]: 8.02 µM; GI50 [10]: 2.79 µM; TGI [10]: 8.58 µM; GI50 [11]: 1.88 µM; TGI [11]: 4.21 µM; GI50 [12]: 3.39 µM; TGI [12]: 11.5 µM; GI50 [13]: 2.58 µM; TGI [13]: 8.88 µM; GI50 [14]: 2.11 µM; TGI [14]: 6.64 µM; GI50 [15]: 1.55 µM; TGI [15]: 3.58 µM; GI50 [16]: 2.08 µM; TGI [16]: 5.87 µM; GI50 [18]: 3.71 µM; TGI [18]: 17 µM; GI50 [19]: 1.4 µM; TGI [19]: 2.96 µM; GI50 [20]: 0.683 µM; TGI [20]: 7.81 µM; GI50 [21]: 2.19 µM; TGI [21]: 11.8 µM; GI50 [22]: 2.26 µM; TGI [22]: 8.77 µM; GI50 [23]: 1.59 µM; TGI [23]: 3.75 µM; GI50 [24]: 1.58 µM; TGI [24]: 3.24 µM; GI50 [58]: 1.33 µM; TGI [58]: 7.16 µM; GI50 [25]: 3.02 µM; TGI [25]: 9.1 µM; GI50 [26]: 1.4 µM; TGI [26]: 3.77 µM; GI50 [27]: 2.53 µM; TGI [27]: 9.86 µM; GI50 [28]: 2.77 µM; TGI [28]: 8.9 µM; GI50 [29]: 2.36 µM; TGI [29]: 8.83 µM; GI50 [30]: 1.29 µM; TGI [30]: 2.71 µM; GI50 [31]: 1.88 µM; TGI [31]: 7.81 µM; GI50 [34]: 4.66 µM; TGI [34]: 15.8 µM; GI50 [35]: 2.08 µM; TGI [35]: 6.27 µM; GI50 [36]: 1.59 µM; TGI [36]: 2.97 µM; GI50 [37]: 4.63 µM; TGI [37]: 15.7 µM; GI50 [38]: 2.24 µM; TGI [38]: 6.65 µM; GI50 [39]: 2.96 µM; TGI [39]: 11.9 µM; GI50 [40]: 1.34 µM; TGI [40]: 3.08 µM; GI50 [41]: 1.7 µM; TGI [41]: 3.76 µM; GI50 [42]: 1.26 µM; TGI [42]: 4.28 µM; GI50 [43]: 1.56 µM; TGI [43]: 3.27 µM; GI50 [44]: 2.61 µM; TGI [44]: 7 µM; GI50 [45]: 2.39 µM; TGI [45]: 10.9 µM; GI50 [46]: 1.61 µM; TGI [46]: 3.6 µM; GI50 [47]: 1.18 µM; TGI [47]: 3.04 µM; GI50 [48]: 2.2 µM; TGI [48]: 11.2 µM; GI50 [49]: 2.06 µM; TGI [49]: 4.29 µM; GI50 [50]: 2.36 µM; TGI [50]: 5.98 µM; GI50 [51]: 2.58 µM; TGI [51]: 7.29 µM; GI50 [52]: 1.89 µM; TGI [52]: 3.92 µM; GI50 [53]: 1.58 µM; TGI [53]: 3.63 µM; GI50 [54]: 1.68 µM; TGI [54]: 3.34 µM; GI50 [55]: 2.26 µM; TGI [55]: 5.5 µM; GI50 [56]: 1.94 µM; TGI [56]: 4.17 µM
